Measurements reported in US9845460B2, “Treatment of pluripotent cells” (Janssen Biotech, Inc., priority 2008, dated 2017).
Values joined by “and” are separate entries in the source; they are usually repeats but may differ in a detail not shown here. Equal values may be shown once.

Experiments:
[1] = system: human embryonic stem cells (H9 line); assay: High content screening assay: total cell number (proliferative response); format: cell-based
Experimental: (§1) Maintenance of human embryonic stem cells (H9 line) was conducted as described in Example 1. Colonies of cells were maintained in an undifferentiated, pluripotent state with passage on average every four days. Passage was performed by exposing cell cultures to a solution of collagenase (1 mg/ml; Sigma-Aldrich) for 10 to 30 minutes at 37° C. followed by gentle scraping with a pipette tip to recover cell clusters. Clusters were allowed to sediment by gravity, followed by washing to remove residual collagenase. Cell clusters were split at a 1:3 ratio for routine maintenance culture or a 1:1 ratio for immediate assay. The human embryonic stem cell lines used were maintained at passage numbers less than passage 50 and routinely evaluated for normal karyotypic phenotype and absence of mycoplasma contamination.
(§2) Cell clusters used in the assay were evenly resuspended in normal culture medium and plated onto MATRIGEL-coated 96-well Packard VIEWPLATES (PerkinElmer) in volumes of 100 μl/well. MEF conditioned medium supplemented with 8 ng/ml bFGF was used for initial plating and recovery. Daily feeding was conducted by aspirating spent culture medium from each well and replacing with an equal volume of fresh medium. Plates were maintained at 37° C., 5% CO2 in a humidified box throughout the duration of assay.
Screening was conducted using test compounds from a proprietary library of small molecules selected for their ability to inhibit GSK-3B enzyme activity. Compounds from this library were made available as 1 mM stocks, in a 96-well plate format in 50 mM HEPES, 30% DMSO. Screening compounds were tested in triplicate or duplicate sets. Primary screening assays were initiated by aspirating culture medium from each well followed by three washes in PBS to remove residual growth factors and serum. Test volumes of 80 to 100 μl per well were added back containing DMEM:F12 base medium (Invitrogen) supplemented with 0.5% FCS (HyClone) and 100 ng/ml activin A (R&D Biosystems) plus […] test compound. Positive control wells contained the same base medium, substituting 10-20 ng/ml Wnt3a (R&D Biosystems) for the test compound. Negative control wells contained base medium with 0.5% FCS and activin A alone (AA only) or alternatively, 0.5% FCS without activin A or Wnt3a (no treatment). Wells were aspirated and fed again with identical solutions on day 2 of assay. On days 3 and 4, all assay wells were aspirated and converted to DMEM:F12 supplemented with 2% FCS and 100 ng/ml activin A (without test compound or Wnt3a); parallel negative control wells were maintained in DMEM:F12 base medium with 2% FCS and activin A (AA only) or alternatively, 2% FCS without activin A (no treatment). […]

[2] = system: cells expressing pluripotency markers; assay: Viability (MTS, OD 490 nm) of cells expressing pluripotency markers treated with GSK-3B inhibitors; format: cell-based, human; conditions: for Raw data (duplicate): optical density at 490 nm (MTS), single wells
Experimental: Derivation and maintenance of cells expressing pluripotency makers was conducted as has been described in Example 2. Cells were grown in DMEM:F12 supplemented with 2% FCS (Invitrogen), 100 ng/ml Activin A, 20 ng/ml Wnt-3a, and 50 ng/ml IGF (R&D Biosystems). Cells were seeded at a density of 10,000 cells/cm^2 on Falcon polystyrene flasks and grown in monolayer culture at 37° C., 5% CO2, low oxygen. After reaching 60-70% confluence, cells were passed by washing the monolayer with PBS and incubating with TrypLE (Invitrogen) for 3-5 minutes to allow detachment and single cell dispersal.
Screening was conducted using test compounds from a proprietary library of small molecules selected for their ability to inhibit GSK-3B enzyme activity. Compounds from this library were made available as 1 mM stocks, in a 96-well plate format in 50 mM HEPES, 30% DMSO. For assay, cells expressing pluripotency markers were washed, counted, and plated in normal culture medium at a seeding density of 20,000 cells per well in 96-well clear-bottom, dark-well plates (Costar). This seeding density was previously determined to yield optimal monolayer formation in overnight culture. On the following day, culture medium was removed, cell monolayers were rinsed three times with PBS, and test compounds were added to the wells in 80 μl aliquots, each diluted into assay medium at a final assay concentration of 10 μM. On day 2 of the assay, medium was removed from each well and replaced with a fresh aliquot of test compounds diluted into assay medium. Assay medium on days 1 and 2 of culture consisted of DMEM:F12 supplemented with 0.5% FCS and 100 ng/ml Activin A. On days 3 and 4 of culture, medium was removed from each well and replaced with DMEM:F12 supplemented with 2% FCS and 100 ng/ml Activin A (no test compound). On day 4 of assay, 15 μl of MTS (Promega) was added to each well and plates were incubated at 37° C. for 1.5 to 4 hours prior to reading optical density at 490 nm on a SpectraMax (Molecular Devices) instrument. Statistical measures consisting of mean, standard deviation, and coefficient of variation were calculated for each duplicate set. Toxicity was calculated for each test well relative to a positive control (wells treated with Activin A and Wnt3a on days 1 and 2 of culture).
A larger proportion of the compounds have minimal or no measurable toxicity in this cell-based assay.
A small panel of select compounds was repeat tested over a narrow dose titration range, again using cells expressing pluripotency markers in a similar assay as described above.

[3] = system: HNF-3beta; assay: High content screening assay: HNF-3beta protein expression (total intensity); format: cell-based, human
Experimental: as §1
as §2, with “assay. […]” for “assay.”

[4] = system: human embryonic stem cells (H9 or H1 lines); assay: Plate reader assay (MTS, OD490): proliferation of human embryonic stem cells; format: cell-based
Experimental: Maintenance of human embryonic stem cells (H9 or H1 lines) was conducted as described in Example 1. Colonies of cells were maintained in an undifferentiated, pluripotent state with passage on average every four days. Passage was performed by exposing cell cultures to a solution of collagenase (1 mg/ml; Sigma-Aldrich) for 10 to 30 minutes at 37° C. followed by gentle scraping with a pipette tip to recover cell clusters. Clusters were allowed to sediment and washed to remove residual collagenase. Cell clusters were split at a ratio of 1:3 monolayer area for routine culture or a 1:1 ratio for immediate assay. The human embryonis stem cell lines used for these examples were maintained at passage numbers less than 50 and routinely evaluated for normal karyotypic phenotype as well as absence of mycoplasm contamination.
as §2, with “in” for “in the”, “into” for “onto”, “bFGF)” for “bFGF”, “C.” for “C., 5% CO2”, “box, 5% CO2” for “box”
Primary screening assays were initiated by aspirating culture medium from each well followed by three washes in PBS to remove residual growth factors and serum. Test volumes of 80-100 μl per well were added back containing DMEM:F12 base medium (Invitrogen) supplemented with 0.5% FCS (HyClone) and 100 ng/ml activin A (R&D Biosystems) and 10 μM test compound. […]
On day 4 of assay, […] of MTS (Promega) was added to each well and plates were incubated at 37° C. for 1.5 to 4 hours. Densitometric readings at OD490 were determined using a Molecular Devices spectrophotometer plate reader. Average readings for replicate sets were calculated along with standard deviation and coefficient of variation. […]

[5] = system: Sox17; assay: High content screening assay: Sox17 protein expression (total intensity); format: cell-based, human
Experimental: as §1
as §2, with “assay. […]” for “assay.”

[6] = total intensity normalized to Wnt3a/Activin A positive control

With `OCCC#Cc1nc(-c2ccc(F)cc2)c(-c2ccncc2)n1CCCc1ccccc1` [RWJ67657] the “Proliferative Response Total cells (HNF-3b Expression set)” value ([1]; total cell number in wells stained for HNF-3b) was 6058, the “Proliferative Response Total cells (SOX-17 Expression set)” value ([1]; total cell number in wells stained for SOX-17) was 6376 and the “Proliferative Response Fold over Wnt 3a/AA control (HNF-3b Expression set)” value ([1]; total cells normalized to Wnt3a/Activin A positive control, wells stained for HNF-3b) was 0.3852 Fold over Wnt 3a/AA control. The “Proliferative Response Fold over Wnt 3a/AA control (SOX-17 Expression set)” value ([1]; total cells normalized to Wnt3a/Activin A positive control, wells stained for SOX-17) was 0.4162 Fold over Wnt 3a/AA control, the Average ([2]; MTS viability readout, average of duplicate raw data) was 0.644 and the “Raw data (duplicate), first value” ([2]; MTS viability readout, first of duplicate wells) was 0.629. For the same molecule, the “Raw data (duplicate), second value” ([2]; MTS viability readout, second of duplicate wells) was 0.659, the Average ([2]; cmpd conc 2.5 uM, mean optical density at 490 nm (MTS) of duplicate) was 0.7971 and the “Raw data (duplicate)” value ([2]; cmpd conc 2.5 uM) was 0.8041 and 0.7900. The “% Control” value ([2]; cmpd conc 2.5 uM, viability relative to AA + Wnt3a positive control, MTS day 4) was 93.2%, the Average ([2]; cmpd conc 5 uM, mean optical density at 490 nm (MTS) of duplicate) was 0.8183 and the “Raw data (duplicate)” value ([2]; cmpd conc 5 uM) was 0.8047 and 0.8319. For the same molecule, the “% Control” value ([2]; cmpd conc 5 uM, viability relative to AA + Wnt3a positive control, MTS day 4) was 96.2%, the Average ([2]; cmpd conc 10 uM, mean optical density at 490 nm (MTS) of duplicate) was 0.6052 and the “Raw data (duplicate)” value ([2]; cmpd conc 10 uM) was 0.6195 and 0.5908. The “% Control” value ([2]; cmpd conc 10 uM, viability relative to AA + Wnt3a positive control, MTS day 4) was 66.5%, the “% Control” value ([2]; viability as % of control) was 77.7% and the “HNF-3b Expression Total Intensity” value ([3]; total intensity) was 269025000. The “HNF-3b Expression Fold over Wnt 3a/AA control” value [3, 6] was 0.2428 Fold over Wnt 3a/AA control, the “% Control Value” ([4]; 10 μM test compound, MTS OD490 on day 4, relative to Activin A/Wnt3a positive control) was 84.7% and the “Average (of Raw Data)” value ([4]; mean of replicate raw plate-reader readings (MTS, OD490), proliferation of human embryonic stem cells) was 1.2242. The “% Control” value ([4]; relative to the AA/Wnt3a/DMSO positive control of the same plate (= 100.0)) was 84.7%, the “SOX-17 Expression Total Intensity” value ([5]; total intensity) was 324450000 and the “SOX-17 Expression Fold over Wnt 3a/AA control” value [5, 6] was 0.3336 Fold over Wnt 3a/AA control.

B1: AA only: control wells with base medium, FCS and activin A alone (protein, UniProt P08476 311-426, looked up)
Inhibin beta A chain: GLECDGKVNICCKKQFFVSFKDIGWNDWIIAPSGYHANYCEGECPSHIAGTSGSSLSFHSTVINHYRMRGHSPFANLKSCCVPTKLRPMSMLYYDDGQNIIKKDIQNMIVEECGCS
For B1, the Average ([2]; control wells without test compound, mean optical density at 490 nm (MTS)) was 0.8889 and 0.7861, the “Raw data (duplicate)” value ([2]; control wells without test compound) was 0.8732 and 0.9046 and 0.7674 and 0.8047 and the “% Control” value ([2]; control wells without test compound, relative to AA + Wnt3a) was 106.0% and 98.3%.
